# Experimental data: patent publication US6649365B1, “Indolamine derivatives for detecting peptidase activity in culture media” (Bio Merieux, priority 1998, dated 2003)
# Legend:
# E. coli [1] = experiment: Colony colour on gelled medium of Example 3; assay type: cell-based, Escherichia coli; parameters: key: —: Absence of coloration; Brown = Colony colour; conditions: 37° C.
# Procedure: (§1) L-Pro-BIA, pyroglutamyl-BIA (Pyr-BIA) or Ala-Phe-Pro-BIA is added to this medium. These various media, which are distributed into Petri dishes, are inoculated with various microorganisms: E. coli, K. pneumoniae, C. freundii, p. aeruginosa, S. agalactiae, E. faecium, S. pyogenes, S. epidermidis, C. albicans and C. tropicalis. The dishes are incubated at 37° C. for 48 hours, and the colonies formed are examined visually after incubation for 24 and 48 hours. The colour was noted.
# K. pneumoniae [2] = experiment: Colony colour on gelled medium of Example 3; assay type: cell-based, Klebsiella Pneumoniae; parameters: key: —: Absence of coloration; Brown = Colony colour; conditions: 37° C.
# Procedure: as §1
# C. freundii [3] = experiment: Colony colour on gelled medium of Example 3; assay type: cell-based, Citrobacter freundii; parameters: key: —: Absence of coloration; Brown = Colony colour; conditions: 37° C.
# Procedure: as §1
# P. aeruginosa [4] = experiment: Colony colour on gelled medium of Example 3; assay type: cell-based, Pseudomonas aeruginosa; parameters: key: —: Absence of coloration; Brown = Colony colour; conditions: 37° C.
# Procedure: as §1
# S. agalactiae [5] = experiment: Colony colour on gelled medium of Example 3; assay type: cell-based, Streptococcus agalactiae; parameters: key: —: Absence of coloration; Brown = Colony colour; conditions: 37° C.
# Procedure: as §1
# E. faecium [6] = experiment: Colony colour on gelled medium of Example 3; assay type: cell-based, Enterococcus faecium; parameters: key: —: Absence of coloration; Brown = Colony colour; conditions: 37° C.
# Procedure: as §1
# S. pyogenes [7] = experiment: Colony colour on gelled medium of Example 3; assay type: cell-based, Streptococcus pyogenes; parameters: key: —: Absence of coloration; Brown = Colony colour; conditions: 37° C.
# Procedure: as §1
# Pseudomonas aeruginosa = experiment: Colony colour or fluorescence on gelled medium of Example 1; assay type: cell-based; conditions: medium of Example 1, substrate 200 mg/l, 37° C., 24 or 48 hours, ambient light and UV 365 nm
# Procedure: (§2) L-Pro-BIA, or 7-L-prolylamino-4-methylcoumarin (L-Pro-AMC) is added to this medium at a concentration of 200 mg/l. The various media obtained, which are distributed in Petri dishes, are inoculated with microorganisms. The dishes were incubated at 37° C. for 48 hours. The colonies formed were examined visually in ambient light and under a UV lamp (wavelength=365 nm) after incubation for 24 and 48 hours. The colour or the presence of fluorescence was noted. The microorganisms studied were: Pseudomonas aeruginosa and Candida albicans.
# Escherichia coli = experiment: as above; assay type: cell-based; conditions: medium of Example 1, substrate 200 mg/L, 24 or 48 hours
# Klebsiella Pneumoniae = experiment: as above; assay type: cell-based; conditions: medium of Example 1, substrate 200 mg/L, 24 or 48 hours
# Citrobacter freundii = experiment: as above; assay type: cell-based; conditions: medium of Example 1, substrate 200 mg/L, 24 or 48 hours
# Streptococcus agalactiae = experiment: as above; assay type: cell-based; conditions: medium of Example 1, substrate 200 mg/L, 24 or 48 hours
# Enterococcus faecium = experiment: as above; assay type: cell-based; conditions: medium of Example 1, substrate 200 mg/L, 24 or 48 hours
# Streptococcus pyogenes = experiment: as above; assay type: cell-based; conditions: medium of Example 1, substrate 200 mg/L, 24 or 48 hours
# [8] = test system: Staphylococcus epidermidis; experiment: as above; assay type: cell-based; conditions: medium of Example 1, substrate 200 mg/L, 24 or 48 hours
# P. aeruginosa [9] = experiment: Coloration or fluorescence in phosphate buffer, microtitration plates (Example 2); assay type: cell-based, Pseudomonas aeruginosa; conditions: 0.1 M phosphate buffer pH 7.3, substrate 400 mg/L, 37° C., 24 to 48 hours
# Procedure: (§3) L-Pro-BIA or L-Pro-AMC is added, at the concentration of 400 mg/L, to a 0.1 M phosphate buffer, pH 7.3, at 25° C. The medium obtained is distributed into the wells of microtitration plates which are inoculated with suspensions of P. aeruginosa or of C. albicans. The plates are incubated for 24 hours at 37° C. The wells are examined visually in ambient light and under a UV lamp, after incubation for 24 to 48 hours.
# E. coli [10] = experiment: as above; assay type: cell-based, Escherichia coli; conditions: 0.1 M phosphate buffer pH 7.3, 24 to 48 hours
# K. pneumoniae [11] = experiment: as above; assay type: cell-based, Klebsiella Pneumoniae; conditions: 0.1 M phosphate buffer pH 7.3, 24 to 48 hours
# C. freundii [12] = experiment: as above; assay type: cell-based, Citrobacter freundii; conditions: 0.1 M phosphate buffer pH 7.3, 24 to 48 hours
# S. agalactiae [13] = experiment: as above; assay type: cell-based, Streptococcus agalactiae; conditions: 0.1 M phosphate buffer pH 7.3, 24 to 48 hours
# E. faecium [14] = experiment: as above; assay type: cell-based, Enterococcus faecium; conditions: 0.1 M phosphate buffer pH 7.3, 24 to 48 hours
# S. pyogenes [15] = experiment: as above; assay type: cell-based, Streptococcus pyogenes; conditions: 0.1 M phosphate buffer pH 7.3, 24 to 48 hours
# [16] = test system: genera Escherichia, Klebsiella, Citrobacter, Pseudomonas, Enterococcus, Staphylococcus and Streptococcus; experiment: Preliminary tests in the medium described in Example 1; assay type: cell-based; conditions: for leucine-aminopeptidase or proline-aminopeptidase activity demonstrated: substrate added to the medium of Example 1; for revelation of a peptidase activity: medium of Example 1 with addition of the reagents proposed by Lojda and Havrankova (tetrazolium salt and phenazine methosulphate)
# Procedure: In the course of the studies which lead to the present invention, an investigation was, carried out as to whether it was possible to use this enzymatic substrate for detecting microorganisms cultured, in particular, on gelled media. During preliminary tests, L-Leu-BIA or L-Pro-BIA was added to a medium currently used to search for osidases, which is described in Example 1 below.
# Similarly, in this medium, with osidase substrates (5-bromo-4-chloro-3-indolyl-β-D-galactoside and 6-chloro-3-indolyl-β-D-glucuronide), the β-galactos-idase and β-glucuronidase activities of the microorganisms can be detected.
# Candida albicans = experiment: Colony colour or fluorescence on gelled medium of Example 1; assay type: cell-based; conditions: medium of Example 1, substrate 200 mg/l, 37° C., 24 or 48 hours, ambient light and UV 365 nm
# Procedure: as §2
# C. albicans [17] = experiment: Coloration or fluorescence in phosphate buffer, microtitration plates (Example 2); assay type: cell-based, Candida albicans; conditions: 0.1 M phosphate buffer pH 7.3, substrate 400 mg/L, 37° C., 24 to 48 hours
# Procedure: as §3
# C. albicans [18] = experiment: Colony colour on gelled medium of Example 3; assay type: cell-based, Candida albicans; parameters: key: —: Absence of coloration; Brown = Colony colour; conditions: 37° C.
# Procedure: as §1
# C. tropicalis = experiment: Colony colour on gelled medium of Example 3; assay type: cell-based; parameters: key: —: Absence of coloration; Brown = Colony colour; conditions: 37° C.
# Procedure: as §1
# S. epidermidis = experiment: Colony colour on gelled medium of Example 3; assay type: cell-based, Staphylococcus epidermidis; parameters: key: —: Absence of coloration; Brown = Colony colour; conditions: 37° C.
# Procedure: as §1
smiles,measurement,setting,value
CC(N)C(=O)NC(Cc1ccccc1)C(=O)N1CCCC1C(=O)Nc1c[nH]c2ccc(Br)cc12 (stereo not drawn) [Ala-Phe-Pro-BIA],Colony colour,E. coli [1]; 24 H,Brown^2
same,Colony colour,E. coli [1]; 48 H,Brown
same,Colony colour,K. pneumoniae [2]; 24 H,Brown
same,Colony colour,K. pneumoniae [2]; 48 H,Brown
same,Colony colour,C. freundii [3]; 24 H,Brown
same,Colony colour,C. freundii [3]; 48 H,Brown
same,Colony colour,P. aeruginosa [4]; 24 H,Brown
same,Colony colour,P. aeruginosa [4]; 48 H,Brown
same,Colony colour,S. agalactiae [5]; 24 H,Brown
same,Colony colour,S. agalactiae [5]; 48 H,Brown
same,Colony colour,E. faecium [6]; 24 H,—
same,Colony colour,E. faecium [6]; 48 H,—
same,Colony colour,S. pyogenes [7]; 24 H,Brown
same,Colony colour,S. pyogenes [7]; 48 H,Brown
C[C@H](N)C(=O)Nc1c[nH]c2ccc(Br)cc12 [L-Ala-BIA],peptidase activity revealed by colour or fluorescence of the colonies,Pseudomonas aeruginosa,no coloration
same,peptidase activity revealed by colour or fluorescence of the colonies,Escherichia coli,no coloration
same,peptidase activity revealed by colour or fluorescence of the colonies,Klebsiella Pneumoniae,no coloration
same,peptidase activity revealed by colour or fluorescence of the colonies,Citrobacter freundii,no coloration
same,peptidase activity revealed by colour or fluorescence of the colonies,Streptococcus agalactiae,no coloration
same,peptidase activity revealed by colour or fluorescence of the colonies,Enterococcus faecium,no coloration
same,peptidase activity revealed by colour or fluorescence of the colonies,Streptococcus pyogenes,no coloration
same,peptidase activity revealed by colour or fluorescence of the colonies,[8],no coloration
"Cc1cc(=O)oc2cc(NC(=O)[C@@H](N)CC(C)C)ccc12 [L-Leu-AMC, 7-L-leucylamino-4-methylcoumarin]",peptidase activity revealed by coloration or fluorescence of the wells,P. aeruginosa [9],"detected, by emission of fluorescence"
same,peptidase activity revealed by coloration or fluorescence of the wells,E. coli [10],"detected, by emission of fluorescence"
same,peptidase activity revealed by coloration or fluorescence of the wells,K. pneumoniae [11],"detected, by emission of fluorescence"
same,peptidase activity revealed by coloration or fluorescence of the wells,C. freundii [12],"detected, by emission of fluorescence"
same,peptidase activity revealed by coloration or fluorescence of the wells,S. agalactiae [13],"detected, by emission of fluorescence"
same,peptidase activity revealed by coloration or fluorescence of the wells,E. faecium [14],"detected, by emission of fluorescence"
same,peptidase activity revealed by coloration or fluorescence of the wells,S. pyogenes [15],"detected, by emission of fluorescence"
same,leucine-aminopeptidase or proline-aminopeptidase activity demonstrated,[16],a fluorescence
"CC(C)C[C@H](N)C(=O)Nc1c[nH]c2ccc(Br)cc12 [L-Leu-BIA, 3-L-leucylamino-5-bromoindole]",peptidase activity revealed by colour or fluorescence of the colonies,Pseudomonas aeruginosa,no coloration
same,peptidase activity revealed by colour or fluorescence of the colonies,Escherichia coli,no coloration
same,peptidase activity revealed by colour or fluorescence of the colonies,Klebsiella Pneumoniae,no coloration
same,peptidase activity revealed by colour or fluorescence of the colonies,Citrobacter freundii,no coloration
same,peptidase activity revealed by colour or fluorescence of the colonies,Streptococcus agalactiae,no coloration
same,peptidase activity revealed by colour or fluorescence of the colonies,Enterococcus faecium,no coloration
same,peptidase activity revealed by colour or fluorescence of the colonies,Streptococcus pyogenes,no coloration
same,peptidase activity revealed by colour or fluorescence of the colonies,[8],no coloration
same,peptidase activity revealed by coloration or fluorescence of the wells,P. aeruginosa [9],did not make it possible to detect
same,peptidase activity revealed by coloration or fluorescence of the wells,E. coli [10],did not make it possible to detect
same,peptidase activity revealed by coloration or fluorescence of the wells,K. pneumoniae [11],did not make it possible to detect
same,peptidase activity revealed by coloration or fluorescence of the wells,C. freundii [12],did not make it possible to detect
same,peptidase activity revealed by coloration or fluorescence of the wells,S. agalactiae [13],did not make it possible to detect
same,peptidase activity revealed by coloration or fluorescence of the wells,E. faecium [14],did not make it possible to detect
same,peptidase activity revealed by coloration or fluorescence of the wells,S. pyogenes [15],did not make it possible to detect
same,revelation of a peptidase activity,[16],without allowing the revelation of a peptidase activity
same,leucine-aminopeptidase or proline-aminopeptidase activity demonstrated,[16],not possible to demonstrate
"Cc1cc(=O)oc2cc(NC(=O)[C@@H]3CCCN3)ccc12 [L-Pro-AMC, 7-L-prolylamino-4-methylcoumarin]",peptidase activity revealed by colour or fluorescence of the colonies,Candida albicans,emission of a fluorescence
same,peptidase activity revealed by colour or fluorescence of the colonies,Pseudomonas aeruginosa,emission of a fluorescence
same,peptidase activity revealed by coloration or fluorescence of the wells,P. aeruginosa [9],possible to reveal an L-Pro-aminopeptidase activity
same,peptidase activity revealed by coloration or fluorescence of the wells,C. albicans [17],possible to reveal an L-Pro-aminopeptidase activity
same,leucine-aminopeptidase or proline-aminopeptidase activity demonstrated,[16],a fluorescence
O=C(Nc1c[nH]c2ccc(Br)cc12)[C@@H]1CCCN1 [L-Pro-BIA],peptidase activity revealed by colour or fluorescence of the colonies,Candida albicans,no coloration
same,peptidase activity revealed by colour or fluorescence of the colonies,Pseudomonas aeruginosa,no coloration
same,peptidase activity revealed by coloration or fluorescence of the wells,P. aeruginosa [9],No coloration
same,peptidase activity revealed by coloration or fluorescence of the wells,C. albicans [17],No coloration
same,Colony colour,E. coli [1]; 24 H,—^1
same,Colony colour,E. coli [1]; 48 H,—
same,Colony colour,K. pneumoniae [2]; 24 H,—
same,Colony colour,K. pneumoniae [2]; 48 H,—
same,Colony colour,C. freundii [3]; 24 H,—
same,Colony colour,C. freundii [3]; 48 H,—
same,Colony colour,P. aeruginosa [4]; 24 H,Brown
same,Colony colour,P. aeruginosa [4]; 48 H,Brown
same,Colony colour,C. albicans [18]; 24 H,Brown
same,Colony colour,C. albicans [18]; 48 H,Brown
same,Colony colour,C. tropicalis; 24 H,—
same,Colony colour,C. tropicalis; 48 H,—
same,revelation of a peptidase activity,[16],without allowing the revelation of a peptidase activity
same,leucine-aminopeptidase or proline-aminopeptidase activity demonstrated,[16],not possible to demonstrate
"O=C1CCC(C(=O)Nc2c[nH]c3ccc(Br)cc23)N1 (centres unmarked) [Pyr-BIA, pyroglutamyl-BIA]",Colony colour,E. coli [1]; 24 H,—
same,Colony colour,E. coli [1]; 48 H,—
same,Colony colour,K. pneumoniae [2]; 24 H,—
same,Colony colour,K. pneumoniae [2]; 48 H,Brown
same,Colony colour,C. freundii [3]; 24 H,—
same,Colony colour,C. freundii [3]; 48 H,Brown
same,Colony colour,P. aeruginosa [4]; 24 H,Brown
same,Colony colour,P. aeruginosa [4]; 48 H,Brown
same,Colony colour,S. agalactiae [5]; 24 H,—
same,Colony colour,S. agalactiae [5]; 48 H,—
same,Colony colour,E. faecium [6]; 24 H,Brown
same,Colony colour,E. faecium [6]; 48 H,Brown
same,Colony colour,S. pyogenes [7]; 24 H,Brown
same,Colony colour,S. pyogenes [7]; 48 H,Brown
same,Colony colour,S. epidermidis; 24 H,—
same,Colony colour,S. epidermidis; 48 H,—
